How the values were obtained:
[1] = tested on: endogenous testosterone, LH, and FSH production; assay: Example 3: hormone levels after enclomiphene; assay type: in vivo, human; conditions: 6.25 mg enclomiphene; n=1
Procedure: This example investigated the effects of administering a SERM (enclomiphene) on endogenous testosterone, LH, and FSH production.
Hormone levels were measured after administration of 6.25 mg of enclomiphene (see Table 3, n=1).

[2] = Testosterone concentration at time points after 200 mg of testosterone (FIG. 1)
Procedure: FIG. 1 is a phase diagram of the testosterone concentration in a patient at various time points after being administered 200 mg of testosterone.
Hormone levels were measured after co-administration of 200 mg of testosterone and 6.25 mg of enclomiphene for 30 days. Testosterone concentration was measured at +4 hours and +12 hours after administration. […] Testosterone concentration was measured at +4 hours after administration to capture the peak testosterone concentration (cMax) and +12 hours after administration to capture the trough testosterone concentration (cMin) to determine if endogenous testosterone suppression is prevented with the enclomiphene.

Structure (SMILES) | Sex Hormone Binding Globulin [1] [nmol/L] | increase of calculated free testosterone from baseline (114 pg/mL) [1] [%] | time of testosterone peak [2] [h] | time until testosterone is out of the system [2] [h]
CCN(CC)CCOc1ccc(/C(=C(/Cl)c2ccccc2)c2ccccc2)cc1 [enclomiphene] | 20 | 73 |  | 
C[C@]12CC[C@H]3[C@@H](CCC4=CC(=O)CC[C@@]43C)[C@@H]1CC[C@@H]2O [testosterone, 17β-hydroxy-4-androsten-3-one] |  |  | 3 to 5 | ≤ 12

— patent US12544387B2, “Methods and compositions for testosterone production” (priority 2023, dated 2026)
